Laboratory results from US20240101602A1, “ANTIMICROBIAL PEPTIDES AND METHOD OF PREVENTING OR TREATING INFECTION BY USING THE SAME” (priority 2020, published 2024).
≈ marks a conversion by molar mass, not a printed value. Like-named read-outs stand apart in the source and are kept apart here. Residues, ends and D or L forms follow the SMILES beside them. *: point of attachment. Myristoyl = CCCCCCCCCCCCCC(=O)*

Experiments:
Cgl FST02 = type: cell-based, Colletotricum gloeosporioides
Protocol: (§1) The experiments were conducted in an optimal minimal medium for each pathogen. The media and growth conditions were described in Tables 2 and 3. MIC and MBC values were determined following the procedures described above. […] Fifty microliters of serially diluted peptides (2-fold the final concentration) were added in a 96-well polystyrene plate with 50 μL of the fungal spore suspension. […] The plates were incubated at an optimal temperature without shaking. […] MFC was determined as the lowest peptide concentration at which no fungal growth was observed.

[1] = system: Candida albicans 89 (echinocandin-resistant)
Botrytis cinerea = type: cell-based
Protocol: as §1

[2] = system: bacteria, fungal spores, and fungal mycelia; type: cell-based; details: SYTOX Green, crude peptides, room temperature in dark for 2 h
[3] = system: Ralstonia solanacearum strain Pss4; details: Rs Pss4; optimal minimal medium, crude peptides (Table 9)
[4] = system: Ralstonia solanacearum strain Pss190; details: Rs Pss190; optimal minimal medium, crude peptides (Table 9)
[5] = system: Pectobacterium carotovorum subsp. carotovorum; type: cell-based
Protocol: (§2) The effect of peptide length on the antimicrobial activity was investigated by deciding the minimal inhibitory concentration (MIC) and minimal bactericidal concentration (MBC) for each peptide against the pathogen with the media and growth conditions of phytopathogenic bacteria and E. coli as described in Table 1. Single bacterial colony grown on an optimal rich agar medium was picked, and each grew in 3 mL of the same rich liquid medium for 4 to 6 h. For experiments carried out in the rich medium, the bacterial broth culture was then diluted in the same medium to give a final concentration of OD600=0.08, and then further diluted 100 folds in the same medium. For experiments carried out in the minimal medium, the bacterial cells were collected from the bacterial liquid culture by centrifugation, re-suspended in an optimal minimal medium to give a final concentration of OD600=0.08, and then further diluted 100 folds in the same minimal medium. Fifty microliters of serially diluted peptides (2-fold the final concentration) were added in a 96-well polystyrene plate with 50 μL of the bacterial culture. […] The plates were incubated at an optimal temperature without shaking. […] MBC was determined as the lowest peptide concentration at which no colonies formed. The experiments were conducted in an optimal minimal medium for each pathogen. The media and growth conditions were described in Tables 2 and 3. MIC and MBC values were determined following the procedures described above. […] Fifty microliters of serially diluted peptides (2-fold the final concentration) were added in a 96-well polystyrene plate with 50 μL of the fungal spore suspension.

Erwinia chrysanthemi = type: cell-based
Protocol: as §2

[6] = system: Candida albicans 12-99 (fluconazole-resistant)
Pcc = experiment: In planta pathogen inoculation assay, lesion diameter; type: in vivo, Pectobacterium carotovorum subsp. carotovorum; details: detached leaves of tomato L390 and leaves of Arabidopsis Col0; final peptide concentration 16 μg/mL; 16 to 28 hours post-inoculation
Bc = experiment: as above; type: in vivo, Botrytis cinerea; details: detached leaves of tomato L390 and leaves of Arabidopsis Col0; final peptide concentration 16 μg/mL; 47 to 70 hours post-inoculation
[7] = system: Escherichia coli strain DH5a; details: Eco DH5α; rich medium, 24 h, purified peptides
[8] = system: Xanthomonas euvesicatoria strain Xvt28; experiment: IC50 of bacterial growth (OD600) in rich liquid medium; type: cell-based; details: Xev Xvt28, 24 h, purified peptides
Protocol: (§3) To measure the antimicrobial activity, single colony grown on an optimal rich agar medium for each bacterium was picked and grew in 3 mL of the same rich liquid medium for 4 to 6 h. The bacterial culture was then diluted in the same medium to give a final concentration of OD600=0.08 and then further diluted […] in the same medium. In each well of a 96-well polystyrene plate, 90 μL of the diluted culture was mixed with 10 μL of the peptide to give a peptide concentration of 0, 2, 10, and 20 μg/mL (final cell concentration is 5×10^5 CFU/mL). OD600 was measured after incubation at an optimal temperature for 24 h. IC50 was determined as the lowest peptide concentration inhibiting 50% of bacterial growth.

[9] = system: Xanthomonas campestris pv. campestris strain Xcc17; experiment: as above; type: cell-based; details: Xcc Xcc17, 24 h, purified peptides
Protocol: as §3

[10] = system: Xanthomonas oryzae pv. oryzae strain Xoo28; details: Xoo Xoo28; rich medium, 24 h, purified peptides
[11] = system: Agrobacterium tumefaciens strain Atu C58C1; details: rich medium, 24 h, purified peptides
[12] = Circular dichroism spectroscopy, secondary structure deconvolution; details: dissolved in water, structural deconvolution of CD spectra
[13] = Candida albicans SC5314 (Tables 10, 14)

| Compound | MBC/MFC (Botrytis cinerea) [µg/mL] | membranolytic effect on the cell walls of bacteria, fungal spores, and fungal mycelia [2] | MBC/MFC [3] [µg/mL] | MIC [3] [µg/mL] | MBC/MFC [4] [µg/mL] | MIC [4] [µg/mL] | MBC/MFC [5] [µg/mL] | MIC [5] [µg/mL] | MBC/MFC (Erwinia chrysanthemi) [µg/mL] | MIC (Erwinia chrysanthemi) [µg/mL] | disease lesions caused by Pcc (Pcc) | disease lesions caused by Bc (Bc) | other results |
| --- | --- | --- | --- | --- | --- | --- | --- | --- | --- | --- | --- | --- | --- |
| CCCCCCCCCCCCCC(=O)N[C@@H](Cc1c[nH]c2ccccc12)C(=O)N[C@@H](CCCCN)C(=O)N[C@@H](CCCCN)C(=O)N[C@@H](CC(C)C)C(=O)N[C@@H](CCCCN)C(=O)N[C@@H](CCCCN)C(=O)N[C@@H](CC(C)C)C(=O)N[C@@H](CC(C)C)C(=O)N[C@@H](CCCCN)C(=O)N[C@@H](CCCCN)C(=O)N[C@@H](CC(C)C)C(=O)N[C@@H](CCCCN)C(=O)N[C@@H](CCCCN)C(=O)N[C@@H](CC(C)C)C(N)=O [pepD2M] (Myristoyl-WKKLKKLLKKLKKL-NH2) | 12.0 (≈ 5.99 µM) | significant membranolytic effect | 10.0 (≈ 4.99 µM) | 8.0 (≈ 3.99 µM) | 8.0 (≈ 3.99 µM) | 8.0 (≈ 3.99 µM) | 4.0 (≈ 2 µM) | 4.0 (≈ 2 µM) | 6.0 (≈ 2.99 µM) | 4.0 (≈ 2 µM) | significantly reduced disease lesions | significantly reduced disease lesions | MFC (Cgl FST02): 14.0 µg/mL (≈ 6.98 µM); MBC/MFC (Cgl FST02; Cgl FST02, optimal minimal medium, crude peptides (Table 9)): 16.0 µg/mL (≈ 7.98 µM); MFC [1]: 64 µg/mL (≈ 31.9 µM); MIC [1]: 32 µg/mL (≈ 16 µM); MFC (Botrytis cinerea): 18.7 µg/mL (≈ 9.33 µM); MFC (Candida albicans SC5314; [13]): 64 µg/mL (≈ 31.9 µM); MIC (Candida albicans SC5314; [13]): 32 µg/mL (≈ 16 µM); MFC [6]: 64 µg/mL (≈ 31.9 µM); MIC [6]: 8 µg/mL (≈ 3.99 µM) |
| CCCCCCCCCCCCCC(=O)N[C@@H](Cc1c[nH]c2ccccc12)C(=O)N[C@@H](CCCCN)C(=O)N[C@@H](CCCCN)C(=O)N[C@@H](CC(C)C)C(=O)N[C@@H](CCCCN)C(=O)N[C@@H](CCCCN)C(=O)N[C@@H](CC(C)C)C(=O)N[C@@H](CC(C)C)C(=O)N[C@@H](CCCCN)C(=O)N[C@@H](CCCCN)C(=O)N[C@@H](CC(C)C)C(N)=O [pepD3M] (Myristoyl-WKKLKKLLKKL-NH2) | 6.0 (≈ 3.67 µM) | significant membranolytic effect | 12.0 (≈ 7.34 µM) | 8.0 (≈ 4.89 µM) | 14.0 (≈ 8.56 µM) | 12.0 (≈ 7.34 µM) | 4.0 (≈ 2.45 µM) | 4.0 (≈ 2.45 µM) | 6.0 (≈ 3.67 µM) | 5.0 (≈ 3.06 µM) | significantly reduced disease lesions | significantly reduced disease lesions | MBC/MFC (Cgl FST02): 14.0 µg/mL (≈ 8.56 µM); MIC (Cgl FST02): 14.0 µg/mL (≈ 8.56 µM); MIC (Botrytis cinerea): 5.3 µg/mL (≈ 3.24 µM) |
| WKLLKLLLKLLKLLLKLL [pepA] | – | – | – | – | – | – | – | – | – | – | – | – | IC50 [7]: — (“—” indicates no antimicrobial activity being detected at the highest peptide concentration (20 μg/mL) tested in this study.); IC50 [8]: — (“—” indicates no antimicrobial activity being detected at the highest peptide concentration (20 μg/mL) tested in this study.); IC50 [9]: — (“—” indicates no antimicrobial activity being detected at the highest peptide concentration (20 μg/mL) tested in this study.); MIC (Candida albicans SC5314; Candida albicans SC5314, 48 h at 35° C., 0.125 to 64 μg/mL (Table 5)): — (“—” indicates no antimicrobial activity being detected at the highest peptide concentration (64 μg/mL) tested.); IC50 [10]: — (“—” indicates no antimicrobial activity being detected at the highest peptide concentration (20 μg/mL) tested in this study.); IC50 [11]: — (“—” indicates no antimicrobial activity being detected at the highest peptide concentration (20 μg/mL) tested in this study.); α-helix content [12]: over 90% |
